Data taken from PMC10897476, “Pyridylpiperazine efflux pump inhibitor boosts in vivo antibiotic efficacy against K. pneumoniae” (EMBO Molecular Medicine, 2023).
“And” between values parts separate entries of the source, which are not always exact repeats. Equal entries are not always repeated. Where two headings read alike, the source gives them in different places.

Key:
[1] = Toxicity in mice after a single oral administration; format: in vivo; conditions: over a 24-h period after a single oral administration at 30 mg/kg
Protocol: For these reasons, this compound was selected for multi-organ pharmacokinetic (PK) studies to measure its temporal distribution and tissue concentration in female mice (CD-1), following a single oral administration of 30 mg/kg (Fig. EV3A; Appendix Table S3).

[2] = molecular target: T1, hERG Human Potassium Ion Channel (Homo sapiens, UniProt Q12809); experiment: hERG [3H] Dofetilide binding assay; conditions: at 30 µM
T1 construct: Eurofins Cerep France (contract assay)
T1 sequence (Q12809 whole entry): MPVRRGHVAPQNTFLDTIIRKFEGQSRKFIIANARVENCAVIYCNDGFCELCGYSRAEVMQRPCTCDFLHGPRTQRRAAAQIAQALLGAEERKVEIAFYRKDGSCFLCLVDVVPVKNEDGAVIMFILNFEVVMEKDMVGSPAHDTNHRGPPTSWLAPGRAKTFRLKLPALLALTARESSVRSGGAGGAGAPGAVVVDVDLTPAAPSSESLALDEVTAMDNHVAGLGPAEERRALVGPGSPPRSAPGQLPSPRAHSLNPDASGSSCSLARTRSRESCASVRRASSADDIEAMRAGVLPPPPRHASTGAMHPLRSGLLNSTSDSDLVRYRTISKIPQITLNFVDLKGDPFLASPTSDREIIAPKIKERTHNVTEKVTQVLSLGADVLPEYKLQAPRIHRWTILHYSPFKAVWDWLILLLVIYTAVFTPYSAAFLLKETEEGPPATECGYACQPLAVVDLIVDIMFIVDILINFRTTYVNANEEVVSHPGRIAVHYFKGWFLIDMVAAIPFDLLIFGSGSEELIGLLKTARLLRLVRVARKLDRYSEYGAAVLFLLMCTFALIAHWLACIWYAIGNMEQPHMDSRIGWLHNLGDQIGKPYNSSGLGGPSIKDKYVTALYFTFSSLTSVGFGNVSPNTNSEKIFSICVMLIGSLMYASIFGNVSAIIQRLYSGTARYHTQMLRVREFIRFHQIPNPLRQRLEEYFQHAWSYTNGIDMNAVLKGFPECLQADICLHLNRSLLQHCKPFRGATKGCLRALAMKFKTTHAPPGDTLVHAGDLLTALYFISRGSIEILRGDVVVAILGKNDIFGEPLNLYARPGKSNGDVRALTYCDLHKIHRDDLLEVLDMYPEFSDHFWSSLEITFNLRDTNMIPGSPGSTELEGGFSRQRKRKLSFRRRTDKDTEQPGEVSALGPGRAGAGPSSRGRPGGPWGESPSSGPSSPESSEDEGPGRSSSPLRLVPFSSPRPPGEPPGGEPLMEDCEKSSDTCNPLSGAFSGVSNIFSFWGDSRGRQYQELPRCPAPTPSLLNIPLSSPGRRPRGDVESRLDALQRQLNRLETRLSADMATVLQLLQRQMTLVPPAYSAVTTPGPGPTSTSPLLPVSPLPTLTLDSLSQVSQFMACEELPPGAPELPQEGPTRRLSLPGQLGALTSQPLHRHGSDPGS
Protocol: hERG (human ether-a-go-go-related gene) inhibition was measured at Eurofins Cerep France using hERG Human Potassium Ion Channel [3H] Dofetilide Binding (Antagonist Radioligand) Assay.

[3] = molecular target: K. pneumoniae AcrB (Klebsiella pneumoniae, UniProt A0A332Z023); experiment: Berberine accumulation assay, K. pneumoniae WT; format: cell-based; conditions: read-out: apparent Ki, concentration-dependent stimulation of berberine uptake, 200 µM berberine
Sequence of K. pneumoniae AcrB (A0A332Z023 entry or part of it): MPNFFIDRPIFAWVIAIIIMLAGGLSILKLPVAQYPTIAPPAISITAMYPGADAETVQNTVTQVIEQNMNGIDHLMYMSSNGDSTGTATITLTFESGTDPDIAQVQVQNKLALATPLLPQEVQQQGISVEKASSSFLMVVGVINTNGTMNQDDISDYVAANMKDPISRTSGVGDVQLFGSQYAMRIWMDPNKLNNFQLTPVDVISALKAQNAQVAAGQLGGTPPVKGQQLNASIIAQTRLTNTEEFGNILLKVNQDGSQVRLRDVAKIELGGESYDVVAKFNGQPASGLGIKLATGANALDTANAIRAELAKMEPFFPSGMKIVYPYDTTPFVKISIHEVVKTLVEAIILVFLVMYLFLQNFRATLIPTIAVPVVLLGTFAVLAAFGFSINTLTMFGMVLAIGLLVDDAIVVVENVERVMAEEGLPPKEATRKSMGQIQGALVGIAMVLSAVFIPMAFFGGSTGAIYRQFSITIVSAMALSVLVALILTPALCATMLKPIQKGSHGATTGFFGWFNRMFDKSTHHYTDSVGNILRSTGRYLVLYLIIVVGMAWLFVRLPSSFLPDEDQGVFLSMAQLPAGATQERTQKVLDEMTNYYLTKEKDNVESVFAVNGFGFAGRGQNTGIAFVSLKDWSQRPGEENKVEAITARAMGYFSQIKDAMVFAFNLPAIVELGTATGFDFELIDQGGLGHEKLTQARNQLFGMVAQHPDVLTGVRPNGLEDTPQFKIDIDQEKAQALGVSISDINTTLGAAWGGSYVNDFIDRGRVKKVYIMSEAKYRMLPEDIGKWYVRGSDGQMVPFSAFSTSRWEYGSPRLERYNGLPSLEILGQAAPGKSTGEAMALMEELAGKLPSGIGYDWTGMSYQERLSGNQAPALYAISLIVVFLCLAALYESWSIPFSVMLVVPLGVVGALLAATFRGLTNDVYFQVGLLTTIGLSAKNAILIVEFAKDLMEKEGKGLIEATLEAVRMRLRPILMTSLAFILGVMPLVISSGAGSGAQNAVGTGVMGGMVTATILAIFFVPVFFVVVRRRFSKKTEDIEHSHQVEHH
Protocol: The accumulation of the berberine AcrB substrate in K. pneumoniae WT and AcrB-V448E cells in the presence of different BDM91288 (5) concentrations was determined as described (Plé et al, [2022]) with minor modifications. Briefly, an overnight LB pre-culture of each strain (0.6 mL) was used to inoculate a 30-mL LB culture and incubated for around 2 h (37 °C, 150 rpm) to reach OD600 around 1. Cells were harvested by centrifugation (4000 × g, 10 min at 4 °C), washed three times with 10 mL of ice-cold buffer (50 mM potassium-phosphate pH 7.5 and 1 mM MgSO4) and resuspended into the same buffer containing also 0.2% glucose to an OD600 of 2. The bacterial suspension was then allowed to reach room temperature, after which 200 µL was dispensed to wells of an assay ready 96-black-well plate (Greiner Bio-One) containing 2 µL of 100× concentrated serial dilution of BDM91288 (5). To initiate the uptake experiment, 2 µL of berberine 20 mM (final concentration of 200 µM) was added to each well and transferred to a microplate fluorescence plate reader (Spark, Tecan), where the kinetics of berberine uptake was monitored for 20 min at 30 °C (excitation 365 nm/emission 540 nm). Experiments were performed 4 independent times, and berberine uptake was calculated for all conditions as the rate of fluorescence increase over the first 10 min and expressed as RFU/min (mean ± SD). […]

[4] = Microsomal stability in mouse liver microsomes; format: in vitro ADME; conditions: female
Protocol: To determine compound microsomal stability, liver microsomes from female mice (CD-1, Corning) were used. All incubations were performed in duplicate in a shaking water bath at 37 °C. The incubation mixtures contained 1 μM compound with 1% MeOH used as a vehicle, mouse liver microsomes (0.3 mg of microsomal protein per mL), 5 mM MgCl2, 1 mM NADP, 5 mM glucose 6-phosphate, 0.4 U/mL glucose 6-phosphate dehydrogenase, and 50 mM potassium phosphate buffer (pH 7.4) in a final volume of 0.5 mL. Propranolol, known as a high hepatic clearance drug in rodents, was used as a quality-control compound. Controls (t0 and tfinal) were performed in the same conditions but without NADP. The reaction was initiated by the addition of the compound at 1 µM final. Aliquots were removed at 5, 10, 20, 30, and 40 min and the reaction was stopped by adding four volumes of ice-cold MeCN or MeOH containing an internal standard. The samples were centrifuged for 10 min at 12,000 rpm at 4 °C and the supernatants were transferred in matrix tubes for LC-MS/MS analysis. Each compound was quantified by converting the corresponding analyte/internal standard peak area ratios to percentage drug remaining, using the initial ratio values in control incubations as 100%.
Intrinsic clearance (CLint) is expressed as μL/min/mg proteins.

[5] = Pharmacokinetics in mice, single oral dose (plasma, whole lung); conditions: for concentration at 0.5 h / concentration at 1 h / concentration at 1.5 h / concentration at 2 h / concentration at 4 h / concentration at 6 h / concentration at 24 h: mice
Protocol: BDM91288 (5) was dissolved in 10% kleptose hydroxypropyl-β-cyclodextrin in distilled water and administered per os at 30 mg/kg to female CD-1 mice (~25–30 g). The concentration of BDM91288 (5) in plasma and lungs was measured at different time points after administration of a single dose of compounds. Three mice per time point were anesthetized with isoflurane and blood taken from the retro-orbital sinus using sampling heparinated tubes (4 °C). The blood samples were centrifuged (3500 rpm, 20 min, 4 °C) for plasma separation and stored at −80 °C before BDM91288 measurement. After rodent sacrifice by cervical dislocation, lung was washed in sodium chloride solution (0.9%), frozen in liquid nitrogen and stored at −80 °C.
Plasma and BAL fluid samples were thawed on ice. Aliquots were precipitated with ice-cold MeCN/MeOH 50:50 (1 to 10 ratio) containing propranolol (100 nM) as internal standard. The samples were vigorously mixed with a vortex and centrifuged for 10 min at 12,000 rpm, 4 °C, and the supernatants were transferred into Matrix tubes for LC-MS/MS analysis. Lungs were homogenized in ultrapure water, in a 1 to 4 ratio (W/V) (using a Tissue Lyzer II from Qiagen); then compounds were extracted with a MeOH/MeCN 50:50 mixture in a 1 to 1 ratio (V/V). After centrifugation (12,000 rpm, 10 min, 4 °C) of the homogenate samples, supernatants were diluted (1 to 10) with a MeOH/MeCN 50:50 mixture containing propranolol (100 nM) as internal standard and transferred into Matrix tubes for LC-MS/MS analysis. Spiked standard solutions were prepared the same way in control matrix.
Samples were analysed using a UPLC system Acquity I Class (Waters), combined with a triple quadrupole mass spectrometer Xevo TQD (Waters). The column, placed at 40 °C, was an Acquity BEH C18 50 × 2.1 mm, 1.7 μm column (Waters) and the following mobile phases were used: H2O 0.1% HCOOH as solvent A and MeCN 0.1% HCOOH as solvent B at a flow rate of 0.6 mL/min. The gradient was initiated at 2% B, maintained for 10 s then increased linearly to 98% B in 1′50 and maintained at 98% B for 30 s before returning to initial conditions. […] Data analysis and processing were performed using MassLynx software (Waters).

[6] = female, CD-1, mouse, in vivo, po, 30 mg/kg
[7] = female, CD-1, mouse, in vivo, po, 30 mg/kg, Caverage plasma, single 30 mg/kg p.o.
[8] = female, CD-1, mouse, in vivo, po, 30 mg/kg, Caverage whole lung, single 30 mg/kg p.o.

Structure (SMILES): Clc1cc2cc(N3CCNCC3)ccc2nc1N1CCNCC1 [compound 5]
- toxicity in mice [1]: no toxicity was observed
- inhibition of the hERG potassium channel [2]: 8%
- Ki [3]: ~20 µM
- microsomal CLint at 1 μM ([4]; CD-1, pH 7.4, read-out: Microsomal stability CLint (intrinsic clearance)): 6 µL/min/mg
- half-life at 1 μM ([4]; CD-1, pH 7.4, read-out: Microsomal stability t1/2): > 0.667 h
- Tmax [5, 6]: 4 h
- half-life [5, 6]: > 10 h
- AUC(0-t) ([5]; female, CD-1, mouse, in vivo, po, 30 mg/kg, AUC(0-24h) plasma, single 30 mg/kg p.o., female CD-1 mice): 27 µM·h
- AUC(0-t) ([5]; female, CD-1, mouse, in vivo, po, 30 mg/kg, AUC(0-24h) whole lung, single 30 mg/kg p.o., female CD-1 mice): 3880 µM·h
- concentration at 0.5 h [5, 7]: 800 nM
- concentration at 1 h [5, 7]: 1600 nM
- concentration at 1.5 h [5, 7]: 1300 nM
- concentration at 2 h [5, 7]: 1800 nM
- concentration at 4 h [5, 7]: 2000 nM
- concentration at 6 h [5, 7]: 1400 nM
- concentration at 24 h [5, 7]: 500 nM
- concentration at 0.5 h [5, 8]: 35.4 µM and 11700 ng/g
- concentration at 1 h [5, 8]: 93.5 µM and 31000 ng/g
- concentration at 1.5 h [5, 8]: 102 µM and 33800 ng/g
- concentration at 2 h [5, 8]: 160 µM and 53100 ng/g
- concentration at 4 h [5, 8]: 225 µM and 74700 ng/g
- concentration at 6 h [5, 8]: 168 µM and 55900 ng/g
- concentration at 24 h [5, 8]: 159 µM and 52800 ng/g
- Cmax ([5]; female, CD-1, mouse, in vivo, po, 30 mg/kg, Cmax plasma, single 30 mg/kg p.o., female CD-1 mice): 2000 nM
- Cmax ([5]; female, CD-1, mouse, in vivo, po, 30 mg/kg, Cmax whole lung, single 30 mg/kg p.o., female CD-1 mice): 225 µM and 75000 ng/g
- Cmax ([5]; read-out: Cmax whole lung, single 30 mg/kg p.o., female CD-1 mice, listed as BDM91288 (5)): 225000 nM
